Data reported in patent publication US10428026B2, “Pyridinone dicarboxamide for use as bromodomain inhibitors” (GlaxoSmithKline Intellectual Property (No.2) Limited, priority 2015, dated 2019).

What was measured:
[1] = target: T1, BRD4 BD1 (Homo sapiens, UniProt O60885, Y390A); assay: BRD4 BD1 TR-FRET competition assay; type: binding; settings: mean of n determinations; read-out: mean pIC50 in the BRD4 BD1 TR-FRET assay (converted)
T1 construct: BRD4 (1-477) (Y97A) and (Y390A); made in house; host or cells: E. coli (pET15b vector)

[2] = target: T2, BRD4 BD2 (Homo sapiens, UniProt O60885, Y97A); assay: BRD4 BD2 TR-FRET competition assay; type: binding; settings: for fold selective for BRD4 BD2 over BRD4 BD1: derived from the log unit selectivity; for selectivity for BRD4 BD2 over BRD4 BD1 (BRD4 BD2 pIC50 - BRD4 BD1 pIC50): in at least one of the TR-FRET assays; for IC50: mean of n determinations, read-out: mean pIC50 in the BRD4 BD2 TR-FRET assay (converted)
T2 construct: BRD4 (1-477) (Y97A) and (Y390A); made in house; host or cells: E. coli (pET15b vector)

[3] = test system: BET family (BRD2, BRD3, BRD4 and BRDT) mutant tandem bromodomain proteins; assay: Fluorescence Polarisation binding of Reference Compound X to single and double mutant tandem BET proteins; design: species or system Human
Experimental: The competition of the compounds of formula (I) with Reference Compound X for binding to the BET family (BRD2, BRD3, BRD4 and BRDT) was assessed using protein truncates spanning both bromodomain 1 (BD1) and bromodomain 2 (BD2). In order to monitor differential binding to either BD1 or BD2, single residue mutations of key tyrosines to alanine were made in the acetyl lysine binding pockets. To validate this approach, a double residue mutant tandem domain protein was produced for each of the BET family members. Utilising a Fluorescence Polarisation approach, binding affinities for each of the single and double mutants for Reference Compound X were determined. […] The affinities of the single mutated bromdomain tandem proteins for Reference Compound X were equi-potent with the corresponding non-mutated BET protein. […] In the TR-FRET competition assay, Reference Compound X is used at a concentration that is equivalent to the Kd for the non-mutated bromodomain, which ensures that no binding at the mutated bromodomain is detected. […]

| Structure (SMILES) | IC50 [1] | fold selective for BRD4 BD2 over BRD4 BD1 [2] | selectivity for BRD4 BD2 over BRD4 BD1 (BRD4 BD2 pIC50 - BRD4 BD1 pIC50) [2] | IC50 [2] | fold reduction in Kd (affinity) of double mutant tandem proteins for Reference Compound X ([3]; double residue mutant versus non mutated, wild type tandem BET proteins) | fold change of Kd of the interaction between the mutated bromodomain and Reference Compound X ([3]; single mutations of Tyrosine to Alanine) |
| --- | --- | --- | --- | --- | --- | --- |
| CNC(=O)c1cc(C(=O)N[C@H]2C[C@@H]2C)cn(Cc2ccccc2)c1=O (single isomer, unassigned) [Example 102] | 7.94 µM | at least 100 fold | 2.5 log unit | 0.0251 µM | – | – |
| CNC(=O)c1cc(C(=O)N[C@H]2C[C@@H]2C)cn(Cc2cccc(OCCO)c2)c1=O [Example 153, 1-(3-(2-Hydroxyethoxy)benzyl)-N3-methyl-N5-((1S,2S)-2-methylcyclopropyl)-2-oxo-1,2-dihydropyridine-3,5-dicarboxamide] | 31.6 µM | at least 100 fold | 2.7 log unit | 0.0631 µM | – | – |
| COc1ccc2c(c1)C(c1ccc(Cl)cc1)=N[C@@H](CC(=O)NCCCCCNC(=O)CCCCCC1(C)/C(=C/C=C/C=C/C3=[N+](CCCCS(=O)(=O)O)c4ccc(S(=O)(=O)O)cc4C3(C)C)N(CCCCS(=O)(=O)[O-])c3ccc(S(=O)(=O)O)cc31)c1nnc(C)n1-2 (stereo partly shown) [Reference Compound X] | – | – | – | – | > 1000 fold | > 1000 fold |
